The text below walks through data of publication PMC7221699, “Synthesis and Cytotoxic Analysis of Novel Myrtenyl Grafted Pseudo-Peptides Revealed Potential Candidates for Anticancer Therapy” (Molecules, 2020).

Molecules are shown by their SMILES.

The subject of data set [1] is human gastric adenocarcinoma (AGS) cells. As to the kind of experiment: Sulforhodamine B (SRB) cell cytotoxicity assay, AGS cells. It is filed as cell-based. How it is done: (§1) […] The cell lines were expanded, cultured, and maintained at 37 °C in a humid atmosphere with 5% CO2 in modified Dulbecco’s medium (Thermo Fisher Scientific, Waltham, MA, USA), with 10% FBS (Thermo Fisher Scientific, Waltham, MA, USA) and 100 U/mL of the antibiotic mixture penicillin/streptomycin (Thermo Fisher Scientific, Waltham, MA, USA).
(§2) We evaluated the cytotoxicity effects of novel Myrtenal hybrids against on cells by the sulforhodamine B (SRB) assay. Initially, the cells were seeded in 96-well microplates at a density of 2 × 10^4 cells/well. All compounds were initially dissolved in 100% of methanol and prediluted to reduce methanol concentration to 1% or lower in culture medium and added to the cells at different concentrations for 24 h. Then, cells were fixed by adding 10% (w/v) trichloroacetic acid (TCA) (Winkler) in each well and were stained with 0.057% (w/v) Sulforhodamine B (SRB) (Sigma-Aldrich) in 1% (v/v) acetic acid (Winkler). The bound dye was dissolved in 10 mM Tris base (Sigma-Aldrich), and the absorbance was determined at 510 nm using a multiplate reader (Synergy 2, Biotek Instruments). Percentage cell viability was determined using the formula: […]. The absorbance from the wells of the negative control (1% methanol in culture medium) was considered as the 100% viability. EC50 values were determined by regression analysis (R^2 > 0.95) of the corresponding dose response curves of percentage of cell viability and concentration of the compounds. Emax, the maximum effect of the drug at the highest tested concentration were determined using an online calculator (http://www.grcalculator.org/). Emax lies between 1 and 0; a value of 0 corresponds to a fully cytotoxic response.

Data set [2] relates to human dermal fibroblast (HDF) cells. Nature of the data set: Sulforhodamine B (SRB) cell cytotoxicity assay, HDF non-cancer cells. It counts as cell-based. Conditions: 60, 120 and 240 ng/mL, 24 h. As to the method:
as §1, §2

The test system of data set [3] is human breast adenocarcinoma (MCF-7) cells. Nature of the data set: Sulforhodamine B (SRB) cell cytotoxicity assay, MCF-7 cells. It counts as cell-based. As to the method: as §1, §2
The test system of data set [4] is human colon adenocarcinoma (HT-29) cells. Nature of the data set: Sulforhodamine B (SRB) cell cytotoxicity assay, HT-29 cells. It counts as cell-based. The note with it: HT29 cells. How it is done:
as §1, §2

Another data set deals with primary CD4+ T cells. Nature of the data set: Viability and cell count of activated CD4+ T lymphocytes per proliferation cycle (flow cytometry). Conditions: compounds added at EC25 48 h after activation, incubated four days. It is filed as cell-based, human. As to the method:
CD4+ T cells were first stained with a cell tracer dye, a fluorescent reagent that diffuses into cells and binds covalently to intracellular amines, and then with a Live/Dead dye that permeates into cells with damaged membranes, while live cells remain unstained. In addition, counting beads were added into each sample to calculate the exact number of cells per cell cycle (Figure 4A). Then, in order to induce proliferation, fluorescent-labelled CD4+ T cells were activated with anti-CD3/CD28 beads, which mimic physiological T cell receptor triggering and co-stimulation in T lymphocytes. After activation, a proportion of cells proliferated, while some stayed in a non-proliferative state. […] Myrtenyl derivatives were added after the second day of culture to evaluate their effect on non-proliferating CD4+ T cells at cycle 0 and 1 and in proliferating cells in cycle 2, 3, and 4. Live CD4+ T cells activated in the presence of five Myrtenyl derivatives were counted and results were normalized with the control sample per cell cycle.
CD4+ T cells were obtained from peripheral blood from healthy volunteers. Blood samples were diluted 1:2 with PBS before adding 50 μL/mL of RosettSep Human CD4+ T cell enrichment cocktail (STEM CELL) for 20 min at room temperature. After incubation, samples were diluted again 1:4 with PBS and CD4+ T cells were obtained directly from the mononuclear fraction obtained after Ficoll–Hypaque density gradient centrifugation. CD4+ T cells were washed twice, counted, and resuspended in PBS. CD4+ T cells were then stained with 1 μM Cell Trace Violet Cell Proliferation Kit (Invitrogen, Thermo Fisher Scientific, Waltham, MA, USA) for 20 min at 37 °C, protected from light. Unbound dye was quenched by adding cold FCS for 5 min at 4 °C. CD4+ T cells were washed two times and resuspended in X–VIVO (Gibco) with IL–2 (50 U/mL, ProLeukin). Cells (2 × 10^5) were activated for 48 h with CD3/CD28 Dynabeads (Invitrogen) prior to adding the compounds. After 48 h, compounds were added (EC25) and incubated for four days. To analyze proliferation and viability, cells were stained with Live/Dead fixable far red dead cell staining kit (Invitrogen) for 30 min at 4 °C and counting beads were added before acquisition. Cells were acquired on an LSRFortessa X20 (BD) within 24 h. Data were analyzed using FlowJo (Tree Star, Inc., Ashland, OR, USA).
On the technique in general: In flow cytometry, cells or beads pass a laser one at a time.

Data set [5] has as its system AGS, MCF-7 and HT-29 cells. As to the kind of experiment: SRB cytotoxicity assay, summary over the three cancer cell lines. Conditions: Homo sapiens, MCF-7 and HT-29, 24 h, read-out: EC50 range over the cancer cell lines. It counts as cell-based. As to the method:
as §1
as §2, with “All compounds were initially dissolved in 100% of methanol and prediluted to reduce methanol concentration to 1% or lower in culture medium and added to the cells at different concentrations for 24 h. Then, cells were fixed by adding 10% (w/v) trichloroacetic acid (TCA) (Winkler) in each well and were stained with 0.057% (w/v) Sulforhodamine B (SRB) (Sigma-Aldrich) in 1% (v/v) acetic acid (Winkler).” left out, “Emax lies between 1 and 0; a value of 0 corresponds to a fully cytotoxic response.” left out
A general note: In SRB staining, fixed cells bind dye roughly in proportion to their protein.

Where [6] appears, read: maximal drug effect on viability rate, 1 = no effect, 0 = fully cytotoxic.

The EC50 is the concentration giving half of the maximal effect. As for `CC1(C)[C@H]2CC=C(Cn3cc(CN(CC(=O)NC4CCCCC4)C(=O)C4=CC[C@H]5C[C@@H]4C5(C)C)nn3)[C@@H]1C2` [3d, (1R,5S)-N-[2-(cyclohexylamino)-2-oxoethyl]-N-({1-[((1R,5S)-6,6-dimethylbicyclo[3.1.1]hept-2-en-2-yl)methyl]-1H-1,2,3-triazol-4-yl}methyl)-6,6-dimethylbicyclo[3.1.1]hept-2-ene-2-carboxamide], the “cytotoxicity against AGS cells at the lowest concentration” value in data set [1] (60 ng/mL, 24 h) is reported as “high cytotoxicity”. The Emax in data set [1] (AGS cells, maximal drug effect on viability rate, 1 = no effect, 0 = fully cytotoxic) was found to be 0.1; in data set [3] (setting [6]) it was 0.1; in data set [4] (setting [6]), 0.1. Moreover, the EC50 is 33 nM in data set [1] (Homo sapiens, AGS cells, 24 h of drug treatment, SRB assay); 22 nM in data set [3] (Homo sapiens, MCF7, 24 h of drug treatment, SRB assay); 33 nM in data set [4] (Homo sapiens, HT-29, 24 h of drug treatment, SRB assay); 22 to 33 nM in data set [5]. The “effect on HDF viability (preliminary screen)” value in data set [2] is reported as “without affecting HDF viability”. In addition, the “viability of non-proliferating CD4+ T cells at cycle 0” value in the data set on primary CD4+ T cells (cycle 0) is on record as “did not reduced viability”. For the same molecule, the “viability of proliferating CD4+ T cells at cycle 4” value in the data set with primary CD4+ T cells (cycle 4) is listed as “lowest capacity to reduce viability”.
